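Cultured in 96-well plates, cells were exposed to test compound for 48 hours across five concentrations. Abbreviation: GI50, concentration required for 50% inhibition of growth.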 Calls of active or inactive are those of the source. Cut-off read from the data, not from the text of the source: active = GI50 up to about 1.1 µM and inactive = higher.

Some test systems named below: CCRF-CEM; SN12C; OVCAR-3; SW-620; M14; OVCAR-4; UO-31; SF-295; RPMI-8226; HCC 2998; SNB-19; HT-29; CAKI-1; UACC-62; SK-MEL-5; SR; RXF 393; COLO 205.
Holding throughout (test): growth of human tumour cells (NCI), 48 h

Regarding `Sc1nnc(COc2ccc(Cl)cc2Cl)[nH]1`, the GI50 in the assay with CCRF-CEM, with SN12C, in the assay on OVCAR-3, with SW-620, in the assay with M14 and in the assay with OVCAR-4 was > 100 µM (inactive) in each case. For the same compound, the GI50 with UO-31, in the assay with SF-295, in the assay on RPMI-8226, with HCC 2998, with SNB-19 and in the assay with HT-29 was > 100 µM (inactive) throughout. Also, the GI50 in the assay with CAKI-1, in the assay with UACC-62, with SK-MEL-5, in the assay on SR and in the assay with RXF 393 was > 100 µM (inactive) throughout.
Regarding `O=C(CCN1CCN(c2cccc(Cl)c2)CC1)N1CCc2c([nH]c3ccccc23)C1c1cccnc1` (stereo not given), the GI50 in the assay on CCRF-CEM is 5.56 µM (inactive); in the assay with SN12C, 6.62 µM (inactive); with COLO 205, 3.66 µM (inactive); with OVCAR-3, 2.47 µM (inactive); with SW-620, > 10 µM (inactive); in the assay with M14, 3.37 µM (inactive). For the same compound, the GI50 in the assay on OVCAR-4 is 2.58 µM (inactive); with UO-31, 2.98 µM (inactive); with SF-295, 4.72 µM (inactive); with RPMI-8226 it was 4.72 µM (inactive); in the assay with HCC 2998, 1.91 µM (inactive); in the assay on SNB-19, 6.82 µM (inactive). Further, the GI50 with HT-29 was 3.56 µM (inactive); with CAKI-1, 3.8 µM (inactive); with UACC-62, > 10 µM (inactive); in the assay on SK-MEL-5, 6.25 µM (inactive); in the assay on SR, 1.75 µM (inactive); in the assay with RXF 393, 7.4 µM (inactive).
As to `Nc1c(Cl)ncnc1NCCCNc1ncnc(Cl)c1N`, the GI50 with CCRF-CEM, in the assay on SN12C, in the assay with COLO 205, in the assay on OVCAR-3, in the assay on SW-620 and with M14 was > 100 µM (inactive) in each case. Also, the GI50 in the assay with OVCAR-4 is > 100 µM (inactive); with UO-31, 95.3 µM (inactive); in the assay on SF-295, > 100 µM (inactive); in the assay on RPMI-8226, > 100 µM (inactive); in the assay on HCC 2998, > 100 µM (inactive); with SNB-19 it was > 100 µM (inactive). In addition, the GI50 in the assay with HT-29, in the assay with CAKI-1, in the assay with UACC-62, in the assay on SK-MEL-5, with SR and in the assay on RXF 393 was > 100 µM (inactive) each time.
As for `O=S1(=O)OCCOS(=O)(=O)C1Br`, the GI50 with CCRF-CEM, in the assay on SN12C, in the assay on COLO 205, in the assay on OVCAR-3, with SW-620 and in the assay on M14 was > 100 µM (inactive) each time. Besides, the GI50 in the assay on OVCAR-4 was > 100 µM (inactive); in the assay on UO-31, 39.1 µM (inactive); with SF-295, 86.5 µM (inactive); with RPMI-8226 it was > 100 µM (inactive); in the assay on HCC 2998 it was > 100 µM (inactive); with SNB-19, 64.9 µM (inactive). Further, the GI50 was > 100 µM (inactive) in the assay with HT-29; > 100 µM (inactive) in the assay with CAKI-1; 52.2 µM (inactive) in the assay on UACC-62; > 100 µM (inactive) with SK-MEL-5; > 100 µM (inactive) with SR.
Turning to `N#CCCN(CCC#N)C(=O)c1cccc(C(=O)N(CCC#N)CCC#N)c1`, the GI50 with CCRF-CEM is > 100 µM (inactive); in the assay with SN12C it was > 43.7 µM (inactive); with COLO 205, > 70.5 µM (inactive); in the assay with OVCAR-3, > 100 µM (inactive); in the assay on SW-620, 13.4 µM (inactive); in the assay on M14, > 69 µM (inactive). Besides, the GI50 with OVCAR-4 is > 100 µM (inactive); in the assay on UO-31, > 100 µM (inactive); in the assay with SF-295, > 77.8 µM (inactive); in the assay with RPMI-8226, > 50.4 µM (inactive); in the assay on HCC 2998 it was > 85.1 µM (inactive); with SNB-19, > 61 µM (inactive). The GI50 was 19.1 µM (inactive) with HT-29; > 100 µM (inactive) with CAKI-1; > 37.3 µM (inactive) in the assay on UACC-62; > 56.5 µM (inactive) in the assay with SK-MEL-5; > 44.2 µM (inactive) in the assay on SR; 4.07 µM (inactive) with RXF 393.
In the case of `C#CC[C@]12CC(=O)CC[C@H]1CC1(C2)OCCO1`, the GI50 with CCRF-CEM, in the assay with SN12C, with COLO 205, in the assay on OVCAR-3, in the assay on SW-620 and in the assay on M14 was > 100 µM (inactive) each time. In addition, the GI50 in the assay with OVCAR-4, with UO-31, in the assay on RPMI-8226, in the assay with HCC 2998, with SNB-19 and in the assay with CAKI-1 was > 100 µM (inactive) throughout. The GI50 with UACC-62, in the assay with SK-MEL-5, with SR and with RXF 393 was > 100 µM (inactive) throughout.
Turning to `COC(=O)CCC(=O)Nc1ccc(Cl)cc1C`, the GI50 was 0.123 µM (active) in the assay on CCRF-CEM; > 23.2 µM (inactive) in the assay with SN12C; > 64.9 µM (inactive) with COLO 205; 43.9 µM (inactive) in the assay with OVCAR-3; > 100 µM (inactive) with SW-620; > 100 µM (inactive) with M14. Moreover, the GI50 in the assay on OVCAR-4 was > 75.7 µM (inactive); in the assay on SF-295, > 100 µM (inactive); in the assay on RPMI-8226 it was 0.973 µM (active); in the assay on HCC 2998, > 100 µM (inactive); in the assay with SNB-19, > 100 µM (inactive); in the assay on HT-29 it was > 100 µM (inactive). The GI50 in the assay on CAKI-1 is 23.4 µM (inactive); in the assay with UACC-62 it was 14.3 µM (inactive); in the assay with SK-MEL-5, > 92.9 µM (inactive); with SR, 5.47 µM (inactive); in the assay on RXF 393, > 63 µM (inactive).
As for `CN1C(=O)CCC1(O)C1C=CC=CC1` (stereo not given), the GI50 with CCRF-CEM, with SN12C, in the assay on COLO 205, in the assay with OVCAR-3, in the assay on SW-620 and in the assay with M14 was > 100 µM (inactive) each time. Also, the GI50 in the assay on OVCAR-4, in the assay with UO-31, with SF-295, in the assay with RPMI-8226, with HCC 2998 and with SNB-19 was > 100 µM (inactive) each time. Also, the GI50 in the assay with HT-29, with CAKI-1, in the assay with UACC-62, with SK-MEL-5, in the assay with SR and in the assay on RXF 393 was > 100 µM (inactive) in each case.
With `CC(=O)Nc1ccc(-c2nnc(SCC(=O)Nc3cccc([N+](=O)[O-])c3)o2)cc1`, the GI50 with CCRF-CEM is 9.1 µM (inactive); with SN12C it was 16.1 µM (inactive); with COLO 205 it was 19 µM (inactive); with OVCAR-3, 13.5 µM (inactive); in the assay with SW-620 it was 13.4 µM (inactive); with M14, 16.1 µM (inactive). Moreover, the GI50 in the assay with OVCAR-4 was 11.6 µM (inactive); in the assay with UO-31, 13.2 µM (inactive); with SF-295, 16.8 µM (inactive); in the assay with RPMI-8226, 20.7 µM (inactive); in the assay on HT-29 it was 16.1 µM (inactive); in the assay with CAKI-1 it was 13.7 µM (inactive). The GI50 in the assay on UACC-62 was 11.5 µM (inactive); in the assay with SK-MEL-5, 14 µM (inactive); with SR it was 2.87 µM (inactive); in the assay with RXF 393 it was 12.2 µM (inactive).
Take `c1ccc2c(c1)[nH]c1c2nc2ncccn21`: the GI50 in the assay on CCRF-CEM, with SN12C, in the assay with SW-620, in the assay with M14, in the assay on OVCAR-4 and in the assay with UO-31 was > 100 µM (inactive) in each case. The GI50 in the assay on SF-295, with HCC 2998, with SNB-19, in the assay with HT-29, in the assay with CAKI-1 and with UACC-62 was > 100 µM (inactive) each time. For the same compound, the GI50 in the assay on SK-MEL-5, in the assay with SR and in the assay on RXF 393 was > 100 µM (inactive) in each case.
In the case of `COc1cc2c(cc1OC)C(N(C)C)C(c1ccccc1)=C2Cl` (stereo not given), the GI50 is 60.5 µM (inactive) in the assay with CCRF-CEM; 18.7 µM (inactive) in the assay with SN12C; 17.9 µM (inactive) with COLO 205; 21.3 µM (inactive) in the assay on OVCAR-3; 16.2 µM (inactive) in the assay with SW-620; 19.8 µM (inactive) in the assay with M14. For the same compound, the GI50 in the assay on OVCAR-4 was 27.4 µM (inactive); in the assay with UO-31 it was 16.9 µM (inactive); with SF-295, 22.8 µM (inactive); with RPMI-8226, 18.2 µM (inactive); in the assay with SNB-19, 37.9 µM (inactive); in the assay with HT-29, 19.9 µM (inactive). In addition, the figures for the GI50 in the assay with SR and with RXF 393 were 4.54 µM (inactive) and 15.5 µM (inactive), respectively.
Turning to `CC(C)C1CC(O)O[C@@H]([C@@H](C)[C@H]2CC(=O)[C@@H]3[C@@H]4[C@@H](O)[C@H](O)[C@H]5[C@@H](O)[C@H](O)CC[C@]5(C)[C@H]4CC[C@]23C)C1` (stereo not given in full), the GI50 in the assay on CCRF-CEM was > 100 µM (inactive); in the assay on SN12C, 28.7 µM (inactive); in the assay with COLO 205, > 100 µM (inactive); with OVCAR-3 it was > 100 µM (inactive); in the assay on SW-620 it was > 100 µM (inactive); in the assay with M14, 91.6 µM (inactive). Further, the GI50 was > 100 µM (inactive) in the assay on OVCAR-4; > 100 µM (inactive) with UO-31; 47.8 µM (inactive) in the assay with SF-295; > 100 µM (inactive) in the assay on HCC 2998; 37.8 µM (inactive) with SNB-19; > 100 µM (inactive) in the assay with HT-29. For the same compound, the GI50 with UACC-62 was 79.4 µM (inactive); with SK-MEL-5, 52.2 µM (inactive); in the assay on SR it was > 100 µM (inactive); with RXF 393, 13.3 µM (inactive).
